Reference: the NIST ThermoML archive (doi:10.1016/j.jct.2010.12.010)
Several values for one entry are separate records, joined by “and”; a condition that tells them apart may be missing. Identical values can stand only once.

Conditions: Liquid, Manometric method

CC(N)CN (centres undefined) [1,2-propanediamine]
Conditions | vapor or sublimation pressure
284.01 K | 0.5922 kPa
293.15 K | 1.085 kPa
293.98 K | 1.147 kPa and 1.145 kPa
303.15 K | 2.004 kPa
303.91 K | 2.1 kPa and 2.098 kPa
313.15 K | 3.535 kPa
313.84 K | 3.667 kPa and 3.669 kPa and 3.659 kPa
323.15 K | 5.985 kPa
324.02 K | 6.238 kPa
333.15 K | 9.764 kPa
334 K | 10.11 kPa
343.15 K | 15.41 kPa
353.15 K | 23.61 kPa
363.15 K | 35.21 kPa
363.91 K | 36.31 kPa and 36.33 kPa

NCCCN [1,3-propanediamine]
Conditions | vapor or sublimation pressure
284.84 K | 0.3186 kPa and 0.3177 kPa
293.15 K | 0.5332 kPa
294.82 K | 0.5842 kPa
303.15 K | 0.9648 kPa
313.15 K | 1.688 kPa
314.79 K | 1.829 kPa
323.15 K | 2.863 kPa
324.9 K | 3.145 kPa
333.15 K | 4.72 kPa
334.87 K | 5.175 kPa
343.15 K | 7.58 kPa
344.87 K | 8.263 kPa
353.15 K | 11.88 kPa
354.83 K | 12.67 kPa
363.15 K | 18.22 kPa
364.78 K | 19.47 kPa

NCCCCN [1,4-butanediamine]
Conditions | vapor or sublimation pressure
284.92 K | 0.1292 kPa and 0.1296 kPa
293.15 K | 0.2012 kPa
303.15 K | 0.3324 kPa
312.83 K | 0.54 kPa
313.15 K | 0.5322 kPa
323.15 K | 0.8282 kPa
332.86 K | 1.276 kPa
333.15 K | 1.256 kPa
342.85 K | 1.703 kPa
343.15 K | 1.859 kPa
352.87 K | 2.691 kPa and 2.692 kPa
353.15 K | 2.692 kPa
362.86 K | 3.797 kPa and 3.813 kPa and 3.794 kPa
362.88 K | 3.8 kPa
362.9 K | 3.807 kPa
363.15 K | 3.822 kPa

NCCN [ethane-1,2-diamine]
Conditions | vapor or sublimation pressure
285.5 K | 0.659 kPa
293.15 K | 1.139 kPa
303.15 K | 2.179 kPa
305.44 K | 2.559 kPa
313.15 K | 3.937 kPa
315.43 K | 4.484 kPa
315.48 K | 4.485 kPa
323.15 K | 6.767 kPa
326.2 K | 7.827 kPa
333.15 K | 11.13 kPa
335.88 K | 12.41 kPa
343.15 K | 17.62 kPa
345.7 K | 19.74 kPa and 19.73 kPa and 19.72 kPa
353.15 K | 26.93 kPa
355.67 K | 29.85 kPa and 29.83 kPa
355.69 K | 29.84 kPa
363.15 K | 39.94 kPa
365.6 K | 43.83 kPa [middle of 4 runs]
365.63 K | 43.82 kPa and 43.83 kPa and 43.81 kPa

O [water]
Conditions | vapor or sublimation pressure
285.15 K | 1.362 kPa
293.15 K | 2.277 kPa
295.14 K | 2.562 kPa
303.15 K | 4.165 kPa
313.15 K | 7.284 kPa
315.19 K | 8.02 kPa
323.15 K | 12.23 kPa
325.11 K | 13.5 kPa and 13.53 kPa
325.13 K | 13.5 kPa and 13.52 kPa and 13.53 kPa
333.15 K | 19.82 kPa
335.12 K | 21.77 kPa
343.15 K | 31.09 kPa
345.05 K | 33.84 kPa
345.07 K | 33.85 kPa and 33.84 kPa
353.15 K | 47.34 kPa
355.03 K | 51.15 kPa
363.15 K | 70.22 kPa
364.97 K | 75.14 kPa [middle of 5 runs]
